From US4279926A, “Method of relieving pain and treating inflammatory conditions in warm-blooded animals” (priority 1974, dated 1981)
Values after ≈ are worked out from the molar mass of the structure shown. Values joined by “and” are separate entries in the source; they are usually repeats but may differ in a detail not shown here. Equal values may be shown once. Where a name gives a salt, the structure may show the parent alone.

Legend:
[1] = total mean values, especially during the first 3 hours
Experimental: The blood levels were then determined after 0.5, 1, 1.5, 2, 3, 4 and 5 hours.

pH of aqueous solution = format: physicochemical
Solubility = format: physicochemical
occult blood in faeces = assay: Occult blood in faeces (benzidine test); format: in vivo, human
Experimental: In cases with a history of gastroenteric disorders, even if not drug-dependent, the faeces were tested for the presence of occult blood, using the benzidine test.

[2] = system: patients with degenerative osteoarticular affections; assay: Clinical trial, i.m. 500 mg/day, efficacy in degenerative osteoarticular diseases; format: in vivo, human
Description: In a subsequent clinical trial, 33 human subjects were used with an average age of 73.8±6.8, the minimum age being 61 and the maximum age 88; 7 of the subjects were males and the remaining 26 were female.
These subjects presented osteoarticular diseases of a chronic or subacute type, in which, during the period of observation, an evolutive flare-up of a pre-existing mono- or polyarticular arthrosic process was verified, as well as the appearance ex novo of an arthralgic picture with functional impotence of the osteoarticular segments which previously appeared to be undamaged.
In these cases, the parenteral route of administration was used so as to obtain, in view of the watersoluble characteristics of the test material, a more rapid symptomatic control. Furthermore, this method of administration permits a ready control of any differences in gastric tolerance as compared with the oral administration route, which is more commonly used.
The test substance was injected in the morning between 8 and 8.30 a.m. Before starting the therapy, midway through it and immediately after it, the following parameters were controlled in order to ascertain how effective the treatment had been: Lansbury's dynamometer (the values of muscular strength were expressed in kg.); the range of articular flexion and extension (the basal finding was expressed conventionally with the notations "+" to "+++," the successive findings being assessed as "unchanged," "increased" or "decreased," compared with the pre-treatment findings; subjective algesic symptomatology, the criteria of evaluation being similar to those adopted for determining the range of articular flexion and extension; finger tip-floor distance test, obtained by measuring the distance between the tips of the fingers and the floor when the subject bends forward; and morning stiffness, this being the time taken for the disappearance of stiffness on awakening.
Thus, for the evaluation of the test substance, it was thus possible to have 3 quantitative parameters (morning stiffness, Lansbury's index and finger tip-floor distance) and 2 semiquantitative parameters (pain symptomatology and flexo-extension strength). This is sufficient to obtain a reliable therapeutic profile in the test subjects, where the subjective element plays a predominant role in determining the clinical picture, as well as the therapeutic response.
The numerical data obtained were analysed statistically by means of the calculation of the Student "t" test on the mean values found before and after treatment.

Stability = settings: salt or its aqueous solution
[3] = system: carrageenin oedema, inflamed paw; assay: Carrageenin oedema of the rat paw (anti-inflammatory action, paw size/volume); format: in vivo, male Wistar rats; settings: Table 2, 100 mg/kg p.o. (lysine salt: 60 as active substance)
gastro-intestinal mucosa = settings: known from the art; cited from earlier work
[4] = system: pain threshold in the inflamed paw (carrageenin oedema); assay: Pain threshold under pressure of the inflamed (carrageenin) rat paw (analgesic action); settings: Table 3, 100 mg/kg p.o. (lysine salt: 60 as active substance)
Experimental: At intervals after the treatment, the size of the treated paw and its sensitivity to pain under pressure were evaluated.

[5] = end of experiment, of 14 positive before treatment
[6] = of 18 cases with major initial involvement

Question: Which results are given for `CC(C)Cc1ccc(C(C)C(=O)O)cc1` (racemic) [Example 1]?
Answer: Blood levels compared with oral sodium salt [1]: higher blood levels are always obtained, especially during the first 3 hours, than after the oral administration of the sodium salt; pH of aqueous solution (pH of aqueous solution): substantially neutral pH; solubility (Solubility; in water): ~400 mg/mL (≈ 1940 mM); Anaemia in blood counts (occult blood in faeces; end of experiment): did not reveal any cases of anaemia which could be considered pathological or at the most suspect; Faecal occult blood: haematic loss disappeared (occult blood in faeces; [5]): 1 case; Faecal occult blood: haematic loss reduced (occult blood in faeces; [5]): 6 cases; Faecal occult blood: haematic loss slightly increased (occult blood in faeces; [5]): 2 cases; Faecal occult blood: haematic loss unchanged (occult blood in faeces; [5]): 5 cases; Faecal occult blood positive in pretreatment phase (occult blood in faeces; pretreatment (baseline)): 14 subjects; Cases with increase of flexo-extension strength ([2]; 33 patients, i.m. 500 mg/day): 36.3%; Cases with spontaneous pain reduced following treatment ([2]; 33 patients, i.m. 500 mg/day): 27 cases; Cases with spontaneous pain reduced following treatment (%) ([2]; 33 patients, i.m. 500 mg/day): 81.8%; Morning stiffness, mean after treatment ([2]; Table 7, after i.m. 500 mg/day, s.d. ± 8.2): 18.93 min; Morning stiffness, mean before treatment ([2]; Table 7, before treatment (baseline), s.d. ± 6.62): 20.17 min; Lansbury test, mean before treatment ([2]; Table 7, before treatment (baseline), s.d. ± 9.19): 30.96 kg; Fingertip-floor distance, mean before treatment ([2]; Table 7, before treatment (baseline), s.d. ± 12.4): 33.17 cm; Fingertip-floor distance, after treatment ([2]; Table 7, i.m. 500 mg/day, individual patients in order of case no. (cases 7, 8, 9, 14, 27-31, 33 not given), listed as lysine isobutylphenyl propionate): 45 cm and 40 cm and 30 cm and 28 cm and 15 cm and 11 cm and 6 cm and 20 cm and 24 cm and 48 cm and 38 cm and 18 cm and 46 cm and 35 cm; Morning stiffness, after treatment ([2]; Table 7, i.m. 500 mg/day, individual patients in order of case no. (cases 8, 9, 14, 26 not given), listed as lysine isobutylphenyl propionate): 30 min and 10 min and 0 min and 8 min and 2 min and 12 min and 25 min and 15 min and 11 min and 5 min and 9 min and 23 min and 18 min and 22 min and 20 min; Radiologic changes ([2]; after treatment vs before): no radiologic changes; Lansbury test, pre- vs post-treatment mean values ([2]; i.m. 500 mg/day): similar; Overall safety and clinical efficacy ([2]; i.m. 500 mg/day): safe and clinically effective; P, difference between pre- and post-treatment duration of morning stiffness ([2]; i.m. 500 mg/day, Student t test): < 0.01; Patients with "excellent" effect ([2]; i.m. 500 mg/day, of 33): 25 patients; Patients with "fair" result ([2]; i.m. 500 mg/day, of 33): 4 patients; Patients with "poor" or "nil" effect ([2]; i.m. 500 mg/day, of 33): 4 patients; Patients with marked improvement of flexo-extension strength [2, 6]: 10 patients; Patients with marked improvement of flexo-extension strength (%) [2, 6]: 55.5%

Question: With `CC(C)Cc1ccc(CC(=O)O)cc1` [Example 14, D,L-arginine salt of 2-(4-isobutyl-phenyl)-acetic acid] as the compound, how does the “pH of aqueous solution” value (pH of aqueous solution) read?
Answer: The value was “pH close to neutrality”.

Question: And the “Solubility in water” value (Solubility)?
Answer: The value was “moderately soluble in water”.

Question: What about the “Stability” value (Stability) of the same compound?
Answer: The value was “stable solution”.

Question: What does the source list for `CCCCC1C(=O)N(c2ccccc2)N(c2ccccc2)C1=O` [Phenyl-butazone, phenylbutazone]?
Answer: Paw volume - carrageenin oedema ([3]; 0 hrs, control 1.16 ± 0.02): 1.18 ± 0.02 mL; Paw volume, % variation referred to control ([3]; 3 hrs): -25.4%; Paw volume, % variation referred to control ([3]; 4 hrs): -23.6%; Paw volume - carrageenin oedema ([3]; 4 hrs, control 2.29 ± 0.05, **p = 0.01): 1.75 ± 0.05 mL; Paw volume, % variation referred to control ([3]; 5 hrs): -22.0%; Paw volume - carrageenin oedema ([3]; 5 hrs, control 2.36 ± 0.06, **p = 0.01): 1.84 ± 0.05 mL; Undesired side-effects (gastro-intestinal intolerance, ulceration) compared with phenyl-alkanoic acids (gastro-intestinal mucosa): also show these undesired side-effects in an even more pronounced form; Pain threshold - carrageenin oedema ([4]; 0 hrs, control 101.7 ± 3.19): 105.3 ± 3.03 g; Pain threshold - carrageenin oedema ([4]; 3 hrs, control 52.7 ± 2.00, **p = 0.01): 122.7 ± 2.92 g; Pain threshold - carrageenin oedema ([4]; 5 hrs, control 51.3 ± 2.15, **p = 0.01): 83.7 ± 4.04 g

Question: For `COc1ccc2c(c1)c(CC(=O)O)c(C)n2C(=O)c1ccc(Cl)cc1` [indomethacine], which “Undesired side-effects (gastro-intestinal intolerance, ulceration) compared with phenyl-alkanoic acids” value (gastro-intestinal mucosa) is on record?
Answer: Its value is “also show these undesired side-effects in an even more pronounced form”.
